In patent US10030027B2, “Soluble guanylate cyclase stimulators” (MERCK SHARP & DOHME CORP., priority 2015, dated 2018):

Legend:
[1] = test system: Spontaneously hypertensive rats (SHR); test: Acute efficacy in spontaneously hypertensive rats (SHR); format: in vivo, rat
Procedure, shortened: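 Conscious male SHR with aortic telemetry implants given a single oral gavage of compound in 10% transcutol/20% Cremophor/70% water. Blood pressure sampled continuously, averaged hourly and corrected against vehicle baseline recorded the previous day; maximum peak systolic BP decrease reported at stated oral dose (mg/kg).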

[2] = target: human recombinant sGC enzyme (Homo sapiens (Human), UniProt Q02108+Q02153); test: Size Exclusion Chromatography (SEC) competition binding assay using [3H] Ex-77B as the radioligand; conditions: [3H] Ex-77B radioligand, 24 hours at 37° C.
Procedure, shortened: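 Recombinant human sGC binding measured by competition against tritiated Ex-77B radioligand, with non-specific binding defined by 1 μM unlabeled Ex-77B.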

[3] = test system: hypoxia-induced pulmonary hypertension rat; test: Acute efficacy in hypoxia-induced pulmonary hypertension in rat following intratracheal administration; format: in vivo; conditions: Dose IT 0.03 mpk
Excerpt: Acute Efficacy in Hypoxia-Induced Pulmonary Hypertension in Rat Following Intratracheal Administration Charles River Sprague-Dawley (CD) male rats weighing approximately 350 g were implanted with HD-S21 dual pressure telemetry transmitters (Data Sciences International (DSI)) into the pulmonary artery and femoral artery. This transmitter enables simultaneous measurement of both pulmonary and systemic hemodynamic parameters in the same animal. After a 7-10 day post-operative recovery period, animals were subjected to a normobaric hypoxic (10% oxygen) environment using a Higher Peak Mountain Air Generator (MAG-10) connected to a modified rodent cage via a fitted inlet port. Oxygen (at 10%), temperature, humidity, and CO2 were controlled within normal range and animals were maintained on a 12 hour light-dark cycle with ad libitum access to food and water. After two weeks exposure to 10% O2 hypoxic environment, systolic pulmonary arterial pressure readings increased from 25 mmHg to greater than 50 mmHg. Using a 48 hour baseline average, animals with readings between 50-110 mmHg (standard deviation of less than 10 mmHg) and minimal changes in systolic systemic blood pressure were enrolled for study. Animals were utilized for up to 2 studies per week for 4 weeks with a minimum of 2 days washout between doses of test agent. Compound or vehicle was administered intra-tracheally under light isoflurane anesthesia (5% in oxygen; flow rate 2.0 L/min for 3 minutes). Once anesthetized, rats were placed on an angled intubation stand in supine position and the trachea visualized using a small laryngoscope. Animals then received either 0.5 mL/kg of vehicle or 0.5 mL/kg vehicle containing compound intra-tracheally delivered via microsprayer by use of a Penn-Century Microsprayer® needle 3″ (Model IA-1B-GP) attached to a 1 mL high pressure syringe (Penn Century-Model B-SYR-PL1000) (Penn-Century, Philadelphia, Pa.). The Microsprayer® tip was inserted into the trachea up to the point at which the bend in the needle is close to the tip of the snout, which positions the tip of the Microsprayer® in front of the carina (bifurcation of trachea at the bronchi). After dose delivery the animal is placed on its back in the home cage for recovery. Hemodynamic measurements were continuously recorded and readings consolidated to hourly moving averages. Each animal received a vehicle on Day 1 followed by vehicle or test agent on Day 2. Change from vehicle baseline was calculated by subtracting the hourly Day 1 vehicle response from the hourly Day 2 response and treatment group data was expressed as mean±SEM. Decreases of systolic blood pressure (SBP) and systolic pulmonary arterial pressure (PAP) were measured at a particular IT dose (mpk milligrams per kilogram) for the following Example compounds.

[4] = target: sGC α1/β1 heterodimer (Homo sapiens (Human), UniProt Q02108+Q02153); test: Cell-based sGC functional assay (cyclic GMP assay for sGC activator: CASA assay); conditions: CHO-K1/sGC cells; for Emax: CHO-K1, activity expressed as percentage of compound A (standard), read-out: % Activation; for EC50: inflection point, 4P fit, read-out: IP
Procedure, shortened: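 CHO-K1 cells stably expressing human sGC α1/β1 were pre-incubated 30 min at 25° C with or without 1 μM DETA-NO, then exposed to compound for 1 hr at 37° C with 0.5 mM IBMX and 2.5% DMSO final. Intracellular cGMP was measured by HTRF, expressed as % of reference sGC-HDA maximum; inflection point and maximum fold induction came from 4-parameter fits.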

Ki [2] | Emax [4] | EC50 [4] | SMILES | Category: maximum peak decrease of systolic blood pressure (SBP) in SHR ([1]; Dose P.O. 1 mpk) | Category: decrease in SBP (at minimum decrease in PAP of ≥15 mmHg) [3] | Category: maximum peak decrease of systolic blood pressure (SBP) in SHR ([1]; Dose P.O. 3 mpk)
0.232 nM | 105% | 489 nM | CC(C)(Cc1csc([C@]2(C)C(=O)Nc3nc(-c4nn(CCC(F)(F)C(F)(F)F)c5ncccc45)nc(N)c32)n1)C(=O)O (single isomer, unassigned) [Example 77B] | C (decrease in SBP in SHRs>40 mmHg) | A (decrease in SBP 0-5 mmHg) | 
0.322 nM | 111% | 1060 nM | CC(C)(Cc1coc(C2(C)C(=O)Nc3nc(-c4nn(CCC(F)(F)C(F)(F)F)c5cc(Cl)ccc45)nc(N)c32)n1)C(=O)O (stereo not drawn) [Example 2A, 3-(2-{4-amino-2-[6-chloro-1-(3,3,4,4,4-pentafluorobutyl)-1H-indazol-3-yl]-5-methyl-6-oxo-6,7-dihydro-5H-pyrrolo[2,3-d]pyrimidin-5-yl}oxazol-4-yl)-2,2-dimethyl-propanoic acid] |  | A (decrease in SBP 0-5 mmHg) | A (decrease in SBP in SHRs 5-25 mmHg)
0.166 nM | 113% | 130 nM | CC(C)(Cc1csc(C2(C)C(=O)Nc3nc(-c4nn(CCC(F)(F)C(F)(F)F)c5ncc(F)cc45)nc(N)c32)n1)C(=O)O (stereo not drawn) [Example 84A, 3-(2-{4-amino-2-[5-fluoro-1-(3,3,4,4,4-pentafluorobutyl)-1H-pyrazolo[3,4-b]pyridin-3-yl]-5-methyl-6-oxo-6,7-dihydro-5H-pyrrolo[2,3-d]pyrimidin-5-yl}-1,3-thiazol-4-yl)-2,2-dimethylpropanoic acid] | C (decrease in SBP in SHRs>40 mmHg) | A (decrease in SBP 0-5 mmHg) | 
